Residue numbers refer to the chain shown, from its start. Like-named read-outs stand apart in the source and are kept apart here. Some results are limits rather than exact numbers.

Data on four molecules can be found in publication PMC9835592, “Allosteric inhibition of Staphylococcus aureus MenD by 1,4-dihydroxy naphthoic acid: a feedback inhibition mechanism of the menaquinone biosynthesis pathway” (Philosophical Transactions of the Royal Society B: …, 2023).

Data set [1] addresses T1, Sau-MenDATCC 25923 (Staphylococcus aureus, UniProt Q5HH40). Put plainly: Intrinsic fluorescence quenching upon DHNA titration. It counts as binding. The settings on record: 1 µM enzyme. On the procedure: (§1) Intrinsic fluorescence quenching experiments were performed at 25°C with a Varian Cary Eclipse Fluorescence Spectrophotometer (Agilent Technologies) with slits set at 5 nm bandwidth. The excitation wavelength was 290 nm and emission spectra were recorded in the 300–400 nm range. […] For Sau-MenD samples in the presence of the reaction ligands, the enzyme was preincubated with 100 µM ThDP only or 100 µM ThDP and 300 µM oxoglutarate for 45 min at ambient temperature. DHNA (Sigma-Aldrich) was titrated from stock solutions that were prepared in the assay buffer and kept on ice. Following DHNA addition, cuvette contents were mixed immediately and fluorescence intensity was measured.
(§2) The fluorescence intensities obtained at 340 nm were corrected for the dilution factor as well as for inner filter effects using equation (2.1),2.1 Fi corr=Fi dil ×10^Aex+Aem/2, where Fi corr is the corrected value of fluorescence intensity at the titration point, Fi dil is the dilution-corrected fluorescence intensity measured, and Aex and Aem are the absorbance of DHNA at excitation (290 nm) and emission wavelengths (340 nm).
(§3) Corrected intensities were plotted against the DHNA concentration and, to determine the Kd value for DHNA, the resulting data were fitted in GraphPad Prism 9 using equation (2.2),2.2 F=Fmax−(X+Kd+M−(X+Kd+M)^2−4XM)/2M(Fmax−Fmin), where F is the measured fluorescence intensity of Sau-MenD, Fmax is the fluorescence intensity of Sau-MenD in the absence of DHNA, Fmin is the fluorescence intensity when Sau-MenD is saturated with DHNA, M is the micromolar concentration of enzyme used in the assay, X is the micromolar DHNA concentration and Kd is the dissociation constant.

The next data set has as its target Sau-MenDIS1 (Staphylococcus aureus, UniProt Q2FZL7). The description is as above. The format is binding. On the procedure:
as §1, §2, §3

Data set [2] concerns the target Sau-MenDIS1 Lys309Ala mutant (Staphylococcus aureus, UniProt Q2FZL7, K309A). Description: UV spectroscopy assay of isochorismate consumption, DHNA inhibition.
Data set [3] concerns the target T1, Sau-MenDATCC 25923. Described as above. It counts as biochemical.
For data set [4], the target named is Sau-MenDIS1 Arg98Ala mutant (Staphylococcus aureus, UniProt Q2FZL7, R98A). Described as above.
In another data set the test system is Mtb-MenD. Further details: method as in PMID 32029475. As to conditions: 0.6 µM Mtb-MenD; read-out: IC50 of DHNA, SEPHCHC activity; cited from earlier work.
Data set [5] has as its system four different Sau strains. Description: Growth assay with exogenous DHNA in LB medium (OD600). The settings on record: 37°C, 24 h.
Experimental: (§4) Sau and Pseudomonas aeruginosa (electronic supplementary material, table S2) were grown for 18 ± 2 h in 5 ml of LB medium at 37°C and 180 r.p.m. Cultures were then diluted in fresh LB medium to contain 2.7 × 10^6 CFU ml^−1. A Nunc Microwell 96-well flat-bottom plate (Thermo Scientific) was seeded in triplicate (from three independent starter cultures) with 75 µl of each of the diluted cultures and 75 µl of 2× working solutions of DHNA, MK-4 or DHNA + MK-4 (prepared from the following stock solutions: 100 mM DHNA dissolved in dimethyl sulfoxide (DMSO), and 50 mM MK-4 (Sigma-Aldrich) dissolved in 100% ethanol). Plate wells contained a final concentration of 10^6 CFU well^−1 with 0, 50 or 100 µM DHNA for growth assays, or with 0 or 100 µM DHNA supplemented with 337 µM MK-4 for growth rescue assays. Plates were incubated at 37°C and 300 r.p.m. for 24 h. Growth was determined by measuring the OD600 of the cultures every 30 min during the incubation period. Data from biological replicates were averaged and subtracted from blank data (sterile medium with appropriate additives).
For data set [6], the target named is Sau-MenDIS1 Lys283Ala mutant (Staphylococcus aureus, UniProt Q5HH40, K283A). Put plainly: UV spectroscopy assay of isochorismate consumption, DHNA inhibition.
Data set [7] relates to Sau-MenDIS1 Lys283Ala mutant (Staphylococcus aureus, K283A). The data set is described as above. The settings on record: four-parameter Hill fit; complete CI not determinable, best-fit value to be interpreted with caution.
The subject of a further data set is Sau. Set-up: method as in PMID 35091344. As to conditions: addition to culture medium; cited from earlier work.
A further data set deals with Pseudomonas aeruginosa. Description: Growth assay with exogenous DHNA in LB medium (OD600), control bacterium. The settings on record: DHNA concentrations up to 150 µM, 37°C, 24 h.
In another data set the target is WT Sau-MenDIS1 (Staphylococcus aureus, UniProt Q2FZL7). Put plainly: UV spectroscopy assay of isochorismate consumption (SEPHCHC synthase activity), DHNA inhibition. The format is biochemical.
Another data set has as its system Sau strains. Put plainly: MK-4 growth rescue assay (OD600). The format is cell-based, Staphylococcus aureus. The settings on record: 24 h.
Data set [8] concerns the molecule itself. Put plainly: native MS; protein exchanged from SEC buffer into 2 M ammonium acetate pH 7.4; Sau-MenDIS1 4.7 mg/ml, Sau-MenD ATCC 25923 6.3 mg/ml; gold-coated glass capillaries, Synapt XS, soft ionization.
The mark [9] stands for this setting: four-parameter logistic Hill fit of DHNA inhibition.
[10] abbreviates: read-out: activity reduction in the presence of 12.5 µM DHNA.

Experimental for Pseudomonas aeruginosa: as §4

Regarding `O=C(O)c1cc(O)c2ccccc2c1O` [DHNA, 1,4-dihydroxy-2-naphthoic acid], the Kd was 67 µM on Sau-MenDATCC 25923 [1] (+ 100 μM ThDP/300 μM oxoglutarate); 85 µM on Sau-MenDATCC 25923 [1] (apo-enzyme, 25°C); 98 µM at Sau-MenDIS1 (+ 100 μM ThDP, 1 µM enzyme, read-out: Kd for DHNA); 58 µM at Sau-MenDIS1 (+ 100 μM ThDP/300 μM oxoglutarate, 1 µM enzyme, read-out: Kd for DHNA); 110 µM on Sau-MenDIS1 (apo-enzyme, 1 µM enzyme, 25°C, read-out: Kd for DHNA); 58 to 110 µM on Sau-MenDIS1 (apo-enzyme, ThDP-bound and ThDP- and oxoglutarate-bound forms, read-out: Kd values for DHNA (span over enzyme forms)). Moreover, the half-inhibitory concentration (IC50) is 4.6 µM in data set [2]; 2.3 µM on Sau-MenDATCC 25923 [3] (read-out: IC50 of DHNA, 0.4 µM enzyme, 100 µM ThDP, 300 µM oxoglutarate, 10 µM isochorismate); > 10 µM in data set [4]; 0.053 µM in the data set with Mtb-MenD; > 10 µM in data set [6]; 3.7 µM at WT Sau-MenDIS1 (0.4 µM enzyme, 100 µM ThDP, 300 µM oxoglutarate, 10 µM isochorismate, 30 min preincubation 37°C). Moreover, the Hill slope is given as −1.0 in data set [2] (setting [9]); −0.99 on Sau-MenDATCC 25923 [3] (setting [9]); −2.3 in data set [4] (four-parameter Hill fit, complete CI not determinable, best-fit value to be interpreted with caution); −1.2 in [7]; −1.0 at WT Sau-MenDIS1 (setting [9]). In addition, the inhibition at 12.5 µM turned out to be 80% in data set [2] (setting [10]); 21% in data set [4] (setting [10]); 82% on WT Sau-MenDIS1 (12.5 µM DHNA, 0.4 µM enzyme, 100 µM ThDP, 300 µM oxoglutarate, 10 µM isochorismate, read-out: activity reduction in the presence of 12.5 µM DHNA). Besides, on Sau-MenDATCC 25923 [3] (12.5 µM DHNA, 0.4 µM enzyme, 100 µM ThDP, 300 µM oxoglutarate, 10 µM isochorismate), the “activity reduction in the presence of 12.5 µM DHNA” value was 87%. The effect on growth result in data set [5] (50 µM DHNA, all four Sau strains) is “clearly impaired the growth”; in [5] (100 µM DHNA) it was “growth impact was more severe”; in data set [5] (150 µM DHNA, all four Sau), “completely inhibited”; with Pseudomonas aeruginosa it was “unaffected”. The “effect on susceptibility of Sau to cannabidiol” value in the data set with Sau is “increased the susceptibility”.
`CC(C)=CCC/C(C)=C/CC/C(C)=C/CC/C(C)=C/CC1=C(C)C(=O)c2ccccc2C1=O` [MK-4]: in the data set with Sau, the “effect on susceptibility of Sau to cannabidiol” value is given as “prevented cannabidiol-mediated growth impairment”. In the data set with Sau strains (337 µM MK-4 (150 µg ml−1), absence of DHNA), the “effect on growth, MK-4 alone” value is “slightly impacted the growth”. For the same molecule, the “growth rescue of DHNA-treated Sau” value in the data set with Sau strains (337 µM MK-4 added to medium containing 100 µM DHNA, compared with 100 µM DHNA only) is “significant growth improvement”.

B1: Staphylococcus aureus IS1 MenD (SEPHCHC synthase), wild type (enzyme, UniProt Q2FZL7 1-557, looked up)
chain: MGNHKAALTKQVFTFASELYAYGVREVVISPGSRSTPLALAFEAHPNIKTWIHPDERSAAFFAVGLIKGSERPVAILCTSGTAAANYTPAIAESQISRIPLIVLTSDRPHELRSVGAPQAINQVNMFNNYVSYEFDMPIADDSKETIDAIYYQMQIASQYLYGPHKGPIHFNLPFRDPLTPDLNATELLTSEMKILPHYQKSIDASALRHILNKKKGLIIVGDMQHQEVDQILTYSTIYDLPILADPLSHLRKFDHPNVICTYDLLFRSGLDLNVDFVIRVGKPVISKKLNQWLKKTDAFQILVQNNDKIDVFPIAPDISYEISANDFFRSLMEDTTVNRVSWLEKWQCLEKKGRKEIKCYLEQATDESAFVGELIKKTSEKDALFISNSMPIRDVDNLLLNKNIDVYANRGANGIDGIVSTALGMAVHKRITLLIGDLSFYHDMNGLLMSKLNNIQMNIVLLNNDGGGIFSYLPQKESATDYFERLFGTPTGLDFEYTAKLYQFDFKRFNSVSEFKNATLLSETSTIYELITNREDNFKQHQILYQKLSEMIHDTL
notes: MenD (SEPHCHC synthase) of Staphylococcus aureus IS1; the structure numbers residues up to 557; Cloned in a modified pET30a by NcoI and HindIII; also called Sau-MenDIS1; Sau-MenD IS1; source: E. coli BL21 (DE3), purified (IMAC, TEV cleavage, subtractive IMAC, SEC); not shown: His6, N-terminal, cleaved
In the case of B1, the “stoichiometry N” value in data set [8] was 4.

B2: Staphylococcus aureus ATCC 25923 MenD (SEPHCHC synthase) (enzyme)
chain: B1 chain with N274K, C349R, L350I, I432V, S512N
With B2, the “stoichiometry N” value in [8] amounted to 4.
